PubChem BioAssay (NCI)
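Exposure lasted 48 hours, with cells grown in 96-well plates and compounds tested at five concentrations. GI50 = concentration required for 50% inhibition of growth. The concentration for full growth arrest is given as TGI.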

Columns and labels:
Assay in all cases: NCI-60 cell line screen, 48 h
SNB-19 CNS = tested on: SNB-19 CNS
SW-620 colon = tested on: SW-620 colon
UO-31 renal = tested on: UO-31 renal
HS 578T breast = tested on: HS 578T breast
RXF 393 renal = tested on: RXF 393 renal
SN12C renal = tested on: SN12C renal
CCRF-CEM leukemia = tested on: CCRF-CEM leukemia
HL-60(TB) leukemia = tested on: HL-60(TB) leukemia
IGROV1 ovarian = tested on: IGROV1 ovarian
MDA-MB-231 breast = tested on: MDA-MB-231 breast
MDA-MB-435 = tested on: MDA-MB-435
NCI-H226 lung = tested on: NCI-H226 lung
SR leukemia = tested on: SR leukemia
T-47D breast = tested on: T-47D breast
MCF7 breast = tested on: MCF7 breast
HCT-15 colon = tested on: HCT-15 colon
NCI-H23 lung = tested on: NCI-H23 lung
A498 renal = tested on: A498 renal
SF-295 CNS = tested on: SF-295 CNS
HT29 colon = tested on: HT29 colon
SF-268 CNS = tested on: SF-268 CNS
SK-MEL-2 melanoma = tested on: SK-MEL-2 melanoma
SF-539 CNS = tested on: SF-539 CNS
COLO 205 colon = tested on: COLO 205 colon
KM12 colon = tested on: KM12 colon
OVCAR-4 ovarian = tested on: OVCAR-4 ovarian
SK-OV-3 ovarian = tested on: SK-OV-3 ovarian
NCI-H460 lung = tested on: NCI-H460 lung
UACC-257 melanoma = tested on: UACC-257 melanoma
SK-MEL-28 melanoma = tested on: SK-MEL-28 melanoma
SK-MEL-5 melanoma = tested on: SK-MEL-5 melanoma
K-562 leukemia = tested on: K-562 leukemia
MOLT-4 leukemia = tested on: MOLT-4 leukemia
CAKI-1 renal = tested on: CAKI-1 renal
RPMI-8226 leukemia = tested on: RPMI-8226 leukemia
DU-145 prostate = tested on: DU-145 prostate
HCC-2998 colon = tested on: HCC-2998 colon
NCI/ADR-RES ovarian = tested on: NCI/ADR-RES ovarian
TK-10 renal = tested on: TK-10 renal
SNB-75 CNS = tested on: SNB-75 CNS
HOP-62 NSCLC = tested on: HOP-62 NSCLC
OVCAR-5 ovarian = tested on: OVCAR-5 ovarian
MALME-3M melanoma = tested on: MALME-3M melanoma
786-0 renal = tested on: 786-0 renal
ACHN renal = tested on: ACHN renal
M14 melanoma = tested on: M14 melanoma
HOP-92 NSCLC = tested on: HOP-92 NSCLC
UACC-62 melanoma = tested on: UACC-62 melanoma
PC-3 prostate = tested on: PC-3 prostate
A549 NSCLC = tested on: A549 NSCLC
OVCAR-8 ovarian = tested on: OVCAR-8 ovarian
BT-549 breast = tested on: BT-549 breast

Work on `Cc1cc2nc(C(Cl)Cl)nc(-c3cccs3)n2n1` yielded a GI50 (SNB-19 CNS) of 1180 nM, a TGI (SNB-19 CNS) of 5990 nM and a GI50 (SW-620 colon) of 1380 nM. For the same compound, the TGI (SW-620 colon) was 8100 nM, the GI50 (UO-31 renal) was 1670 nM and the TGI (UO-31 renal) was 5140 nM. The GI50 (HS 578T breast) was 1930 nM, the TGI (HS 578T breast) was 6210 nM and the GI50 (RXF 393 renal) was 838 nM. For the same compound, the TGI (RXF 393 renal) was 2230 nM, the GI50 (SN12C renal) was > 100000 nM and the TGI (SN12C renal) was > 100000 nM. The GI50 (CCRF-CEM leukemia) was 4220 nM, the TGI (CCRF-CEM leukemia) was > 100000 nM and the GI50 (HL-60(TB) leukemia) was 346 nM. For the same compound, the TGI (HL-60(TB) leukemia) was 2390 nM, the GI50 (IGROV1 ovarian) was 2430 nM and the TGI (IGROV1 ovarian) was > 100000 nM. For the same compound, the GI50 (MDA-MB-231 breast) was 1550 nM, the TGI (MDA-MB-231 breast) was 4430 nM and the GI50 (MDA-MB-435) was 1860 nM. For the same compound, the TGI (MDA-MB-435) was 3810 nM, the GI50 (NCI-H226 lung) was > 100000 nM and the TGI (NCI-H226 lung) was > 100000 nM. The GI50 (SR leukemia) was 1430 nM, the TGI (SR leukemia) was > 100000 nM and the GI50 (T-47D breast) was 1400 nM. The TGI (T-47D breast) was 7660 nM, the GI50 (MCF7 breast) was 705 nM and the TGI (MCF7 breast) was > 100000 nM. It also gave a GI50 (HCT-15 colon) of 1200 nM, a TGI (HCT-15 colon) of 4030 nM and a GI50 (NCI-H23 lung) of 953 nM. For the same compound, the TGI (NCI-H23 lung) was 2960 nM, the GI50 (A498 renal) was 1200 nM and the TGI (A498 renal) was 2660 nM. The GI50 (SF-295 CNS) was 1270 nM, the TGI (SF-295 CNS) was 5800 nM and the GI50 (HT29 colon) was 496 nM. For the same compound, the TGI (HT29 colon) was 2190 nM, the GI50 (SF-268 CNS) was 1980 nM and the TGI (SF-268 CNS) was 7270 nM. For the same compound, the GI50 (SK-MEL-2 melanoma) was 3050 nM, the TGI (SK-MEL-2 melanoma) was > 100000 nM and the GI50 (SF-539 CNS) was 2270 nM. For the same compound, the TGI (SF-539 CNS) was 7490 nM, the GI50 (COLO 205 colon) was 942 nM and the TGI (COLO 205 colon) was 3290 nM. For the same compound, the GI50 (KM12 colon) was 2020 nM, the TGI (KM12 colon) was 4510 nM and the GI50 (OVCAR-4 ovarian) was 2120 nM. The TGI (OVCAR-4 ovarian) was 4740 nM, the GI50 (SK-OV-3 ovarian) was 2150 nM and the TGI (SK-OV-3 ovarian) was 6510 nM. For the same compound, the GI50 (NCI-H460 lung) was 333 nM, the TGI (NCI-H460 lung) was 1570 nM and the GI50 (UACC-257 melanoma) was 1870 nM. For the same compound, the TGI (UACC-257 melanoma) was 4550 nM, the GI50 (SK-MEL-28 melanoma) was 1830 nM and the TGI (SK-MEL-28 melanoma) was 3630 nM. For the same compound, the GI50 (SK-MEL-5 melanoma) was 9610 nM, the TGI (SK-MEL-5 melanoma) was > 100000 nM and the GI50 (K-562 leukemia) was 2540 nM. The TGI (K-562 leukemia) was > 100000 nM, the GI50 (MOLT-4 leukemia) was 1480 nM and the TGI (MOLT-4 leukemia) was > 100000 nM. It also gave a GI50 (CAKI-1 renal) of 1660 nM, a TGI (CAKI-1 renal) of 5970 nM and a GI50 (RPMI-8226 leukemia) of 1400 nM. For the same compound, the TGI (RPMI-8226 leukemia) was 5470 nM, the GI50 (DU-145 prostate) was 289 nM and the TGI (DU-145 prostate) was 858 nM. For the same compound, the GI50 (HCC-2998 colon) was 514 nM, the TGI (HCC-2998 colon) was 1910 nM and the GI50 (NCI/ADR-RES ovarian) was 1260 nM. The TGI (NCI/ADR-RES ovarian) was 4720 nM, the GI50 (TK-10 renal) was 2110 nM and the TGI (TK-10 renal) was 5920 nM. It also gave a GI50 (SNB-75 CNS) of 702 nM, a TGI (SNB-75 CNS) of 2940 nM and a GI50 (HOP-62 NSCLC) of 938 nM. The TGI (HOP-62 NSCLC) was 4430 nM, the GI50 (OVCAR-5 ovarian) was 1930 nM and the TGI (OVCAR-5 ovarian) was 5730 nM. It also gave a GI50 (MALME-3M melanoma) of 2210 nM, a TGI (MALME-3M melanoma) of 5310 nM and a GI50 (786-0 renal) of 4700 nM. For the same compound, the TGI (786-0 renal) was > 100000 nM, the GI50 (ACHN renal) was 366 nM and the TGI (ACHN renal) was 2440 nM. For the same compound, the GI50 (M14 melanoma) was 2100 nM, the TGI (M14 melanoma) was 4990 nM and the GI50 (HOP-92 NSCLC) was 1410 nM. For the same compound, the TGI (HOP-92 NSCLC) was 3920 nM, the GI50 (UACC-62 melanoma) was 3000 nM and the TGI (UACC-62 melanoma) was > 100000 nM. It also gave a GI50 (PC-3 prostate) of 1410 nM, a TGI (PC-3 prostate) of 4320 nM and a GI50 (A549 NSCLC) of 374 nM. The TGI (A549 NSCLC) was 3510 nM, the GI50 (OVCAR-8 ovarian) was 1270 nM and the TGI (OVCAR-8 ovarian) was > 100000 nM. For the same compound, the GI50 (BT-549 breast) was 7670 nM and the TGI (BT-549 breast) was > 100000 nM.
